System: 454973-116-R2-J3-PDC complex spheroid viability
Assay: Anticancer human tumor 454973-116-R2-J3-PDC patient-derived pancreatic carcinoma cell line growth inhibition [POLQ]
Settings: for IC50: curve of first compound; for viability, T/C: stronger effect = lower value
In short: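 Patient-derived tumour cells were co-cultured with HUVEC and mesenchymal stem cells as multicellular spheroids at 37 °C. They were treated with POLQ inhibitors (novobiocin, ART-558, RP6685) alone or combined with other agents. Top concentrations were at or near clinical Cmax (otherwise 10 microM; SN-38 at 1 microM), decreasing in half-log steps.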

[1] = second compound 0.0316 µM, first compound 0.0316 µM
[2] = second compound 0.0316 µM, first compound 0.1 µM
[3] = second compound 0.0316 µM, first compound 0.316 µM
[4] = second compound 0.0316 µM, first compound 1 µM
[5] = second compound 0.0316 µM, first compound 3.16 µM
[6] = second compound 0.0316 µM, first compound 10 µM
[7] = second compound 0.1 µM, first compound 0.0316 µM
[8] = second compound 0.1 µM, first compound 0.1 µM
[9] = second compound 0.1 µM, first compound 0.316 µM
[10] = second compound 0.1 µM, first compound 1 µM
[11] = second compound 0.1 µM, first compound 3.16 µM
[12] = second compound 0.1 µM, first compound 10 µM
[13] = second compound 0.316 µM, first compound 0.0316 µM
[14] = second compound 0.316 µM, first compound 0.1 µM
[15] = second compound 0.316 µM, first compound 0.316 µM
[16] = second compound 0.316 µM, first compound 1 µM
[17] = second compound 0.316 µM, first compound 3.16 µM
[18] = second compound 0.316 µM, first compound 10 µM
[19] = second compound 1 µM, first compound 0.0316 µM
[20] = second compound 1 µM, first compound 0.1 µM
[21] = second compound 1 µM, first compound 0.316 µM
[22] = second compound 1 µM, first compound 1 µM
[23] = second compound 1 µM, first compound 3.16 µM
[24] = second compound 1 µM, first compound 10 µM
[25] = second compound 3.16 µM, first compound 0.0316 µM
[26] = second compound 3.16 µM, first compound 0.1 µM
[27] = second compound 3.16 µM, first compound 0.316 µM
[28] = second compound 3.16 µM, first compound 1 µM
[29] = second compound 3.16 µM, first compound 3.16 µM
[30] = second compound 3.16 µM, first compound 10 µM
[31] = second compound 10 µM, first compound 0.0316 µM
[32] = second compound 10 µM, first compound 0.1 µM
[33] = second compound 10 µM, first compound 0.316 µM
[34] = second compound 10 µM, first compound 1 µM
[35] = second compound 10 µM, first compound 3.16 µM
[36] = second compound 10 µM, first compound 10 µM
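Also: spheroids exposed to drugs for seven days before measurement.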
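For viability, T/C in this document: percent viability relative to DMSO vehicle control wells taken as 100%.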

C#Cc1c(F)ccc2cc(O)cc(-c3ncc4c(N5CC6CCC(C5)N6)nc(OCC56CCCN5CC(F)C6)nc4c3F)c12 (centres undefined) + Cc1cccc(N(C)C(=O)C2C(O)CCN2c2nc(C)cc(C(F)(F)F)c2C#N)c1
IC50 (second compound 0.0316 µM): 66.3 nM
IC50 (second compound 0.1 µM): 71.1 nM
IC50 (second compound 0.316 µM): 72.8 nM
IC50 (second compound 1 µM): 60.6 nM
IC50 (second compound 3.16 µM): 47.6 nM
IC50 (second compound 10 µM): < 31.6 nM
viability, T/C [1]: 60.8%
viability, T/C [2]: 44.5%
viability, T/C [3]: 32.2%
viability, T/C [4]: 25.6%
viability, T/C [5]: 23%
viability, T/C [6]: 19.5%
viability, T/C [7]: 65.3%
viability, T/C [8]: 43.8%
viability, T/C [9]: 32.6%
viability, T/C [10]: 30.1%
viability, T/C [11]: 26.5%
viability, T/C [12]: 26.6%
viability, T/C [13]: 66.6%
viability, T/C [14]: 44.4%
viability, T/C [15]: 32.8%
viability, T/C [16]: 27.9%
viability, T/C [17]: 23.2%
viability, T/C [18]: 28.9%
viability, T/C [19]: 56%
viability, T/C [20]: 45.3%
viability, T/C [21]: 31.9%
viability, T/C [22]: 25.2%
viability, T/C [23]: 26.5%
viability, T/C [24]: 25.3%
viability, T/C [25]: 52.9%
viability, T/C [26]: 44.5%
viability, T/C [27]: 35.1%
viability, T/C [28]: 23.9%
viability, T/C [29]: 28.2%
viability, T/C [30]: 24.4%
viability, T/C [31]: 50%
viability, T/C [32]: 38.5%
viability, T/C [33]: 36%
viability, T/C [34]: 31.8%
viability, T/C [35]: 29.1%
viability, T/C [36]: 23.7%

CC1COCCN1c1cc(C2(O)CC3CCC(C2)O3)c2cnn(-c3ccn[nH]3)c2n1 (centres undefined) + Cc1cccc(N(C)C(=O)C2C(O)CCN2c2nc(C)cc(C(F)(F)F)c2C#N)c1
IC50 (second compound 0.0316 µM): 190 nM
IC50 (second compound 0.1 µM): 212 nM
IC50 (second compound 0.316 µM): 199 nM
IC50 (second compound 1 µM): 196 nM
IC50 (second compound 3.16 µM): 182 nM
IC50 (second compound 10 µM): 163 nM
viability, T/C [1]: 91.2%
viability, T/C [2]: 70%
viability, T/C [3]: 33.4%
viability, T/C [4]: 22.8%
viability, T/C [5]: 20.6%
viability, T/C [6]: 13.2%
viability, T/C [7]: 90.6%
viability, T/C [8]: 80.9%
viability, T/C [9]: 33.5%
viability, T/C [10]: 20.6%
viability, T/C [11]: 21.5%
viability, T/C [12]: 15.5%
viability, T/C [13]: 93.9%
viability, T/C [14]: 73.1%
viability, T/C [15]: 34.3%
viability, T/C [16]: 21.2%
viability, T/C [17]: 22.8%
viability, T/C [18]: 15.8%
viability, T/C [19]: 102%
viability, T/C [20]: 73%
viability, T/C [21]: 33%
viability, T/C [22]: 21.9%
viability, T/C [23]: 20.1%
viability, T/C [24]: 14.5%
viability, T/C [25]: 98.5%
viability, T/C [26]: 67.6%
viability, T/C [27]: 34.7%
viability, T/C [28]: 16.8%
viability, T/C [29]: 26%
viability, T/C [30]: 16.2%
viability, T/C [31]: 105%
viability, T/C [32]: 60.5%
viability, T/C [33]: 36.7%
viability, T/C [34]: 21.4%
viability, T/C [35]: 28.3%
viability, T/C [36]: 17.2%
